Target: 11-beta-hydroxysteroid dehydrogenase 1 (Homo sapiens, UniProt P28845)
Experiment: Inhibition of 11beta-HSD1

Chain of 11-beta-hydroxysteroid dehydrogenase 1 (P28845 whole entry): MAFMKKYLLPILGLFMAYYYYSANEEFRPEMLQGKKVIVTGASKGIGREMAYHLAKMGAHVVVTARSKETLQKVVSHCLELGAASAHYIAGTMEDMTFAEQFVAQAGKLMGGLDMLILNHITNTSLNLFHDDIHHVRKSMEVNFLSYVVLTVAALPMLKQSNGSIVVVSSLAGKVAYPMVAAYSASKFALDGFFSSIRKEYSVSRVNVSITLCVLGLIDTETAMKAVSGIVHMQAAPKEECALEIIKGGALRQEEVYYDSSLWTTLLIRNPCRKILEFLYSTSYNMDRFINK

IC50 [nM] | SMILES
11 | CC(C)(Oc1ccc(C#N)cn1)C(=O)N[C@H]1C2COCC1C[C@H](C(N)=O)C2
28.8 | CNc1ccc(C(C)(C)C(=O)N[C@H]2C3CC4CC2C[C@](C(N)=O)(C4)C3)cn1
1100 | O=C(Nc1ccc(C(=O)N2CCC[C@H]3CCCC[C@@H]32)cc1)c1ccc(Cl)cc1
7940 | CC1CCCCN1C(=O)c1ccc(NC(=O)c2ccc(Cl)cc2Cl)cc1 (stereo not drawn)
50.1 | O=C(c1ccc(NCc2ccc(F)cc2)cc1)N1CCC[C@H]2CCCC[C@@H]21
21.9 | CC(C)(Oc1ccc(Cl)cc1)C(=O)N[C@H]1C2CCCC1C[C@H](C(N)=O)C2
46.8 | CC(C)(C(=O)N[C@H]1C2CC3CC1C[C@](C(N)=O)(C3)C2)c1ccc(N2CCOCC2)nc1
11 | CCCn1c(CC)nnc1C12CC3CC(CC(C3)C1)C2
1070 | CCC1CCCCN1C(=O)c1ccc(NC(=O)c2ccc(Cl)cc2Cl)cc1 (stereo not drawn)
28.2 | CC(C)(Oc1ccc(C#N)cn1)C(=O)N[C@H]1C2CC3CC1C[C@](C(N)=O)(C3)C2
5.01 | CC(C)(Oc1ccc(-n2cccn2)cn1)C(=O)N[C@H]1C2CC3CC1C[C@](C(N)=O)(C3)C2
21.9 | Cn1c(-c2ccc(C=O)cc2Cl)nnc1C12CCC(c3nc(-c4ccc(F)cc4)no3)(CC1)CC2
182 | O=C(c1ccc(C(=O)N2CCC[C@H]3CCCC[C@@H]32)cc1)N1CCCc2ccccc21
43.7 | CC(C)(Oc1ccc(N2CCOCC2)cn1)C(=O)N[C@H]1C2CC3CC1C[C@](C(N)=O)(C3)C2
52.5 | CCCc1nnc(C23CC4CC(CC(C4)C2)C3)n1CC
14.1 | CC(C)(C(=O)N[C@H]1C2CC3CC1C[C@](C(N)=O)(C3)C2)c1ccc(C#N)cn1
5.01 | CCCCCC12CCC(c3nnc4n3CCCCC4)(CC1)CC2
186 | CN1CCN(c2ccc(OC(C)(C)C(=O)N[C@H]3C4CC5CC3C[C@](C(N)=O)(C5)C4)nc2)CC1
14.1 | O=C(Nc1cccc(C(=O)N2CCC[C@H]3CCCC[C@@H]32)c1)c1ccccc1
40.7 | CC(C)(Oc1ccc(Cl)cc1)C(=O)N[C@H]1C2CC3CC1C[C@](Cc1nnn[nH]1)(C3)C2
380 | O=C(Cc1ccccc1)Nc1ccc(C(=O)N2CCC[C@H]3CCCC[C@@H]32)cc1
1580 | O=C(Nc1ccc(C(=O)N2CCC[C@H]3CCCC[C@@H]32)cc1)c1ccccc1Cl
72.4 | CCCCn1c(C)nnc1C12CC3CC(CC(C3)C1)C2
